Data reported in US9456555B2, “Agent for treating grape vine wood” (Financiere Mercier, priority 2011, dated 2016).

Experiments:
grapevine seedlings = assay: Percentage of recovery (take) after planting; format: in vivo
From the text: The result of recovery (take) after planting (growth of the plants) is very important, as the treatment must not be injurious for the grapevine seedlings.

[1] = test system: Botryosphaeria obtusa, Botryosphaeria dothidea, Eutypa lata, Fomitiporia punctata, Phaeacremonium aleophilum, Phaeomonelia chlamydospora, Phaeoacremonium spp. …; assay: Comparative in vivo test of wood disinfection, PCR analysis for presence of 8 fungi; parameters: species or system grapevine; conditions: immersion 12 h
Procedure: The in vivo test consisted of evaluating a set of 1025 plants derived from 4 rootstocks and 5 different varieties (to limit the varietal effect). Samples of the seedlings were taken before and after treatment. The treatment consisted of immersing the wood in the various solutions under test for 12 h, i.e. the usual rehydration time of the wood in the nursery (overnight). The samples of wood before and after treatment were analyzed, by extracting the total DNA of the wood samples taken, and evaluation by molecular diagnostics (PCR analysis) for the presence or absence of these 8 fungi: Botryosphaeria obtusa, Botryosphaeria dothidea, Eutypa lata, Fomitiporia punctata, Phaeacremonium aleophilum, Phaeomonelia chlamydospora, Phaeoacremonium spp. and Cylindrocarpon destructans. […] If nothing is indicated, it is because it was never found.

[2] = test system: 8 fungi referenced as pathogens and associated with various diseases of the wood; assay: Comparative in vitro test on PDA medium, mycelium growth; format: cell-based; conditions: 10 ml solution left for 12 h on PDA; observed several weeks, about 25° C.; neutral anolyte 100%
Procedure: That is why an in vitro test was carried out, in order to compare the effect of water, hydrogen peroxide, desogerm and the neutral anolyte (100%) on 8 fungi referenced as pathogens and associated with various diseases of the wood. Strains of the 8 fungi mentioned above were deposited on culture medium with low discrimination (PDA—Potato Dextrose Agar—Medium). Then 10 ml of each solution was added to Petri dishes with the inoculated strains of fungi, and left for 12 h.

## OO [H2O2, hydrogen peroxide]
Grapevine seedlings; 8 days after planting
  Percentage of recovery of the treated seedlings: 59%
Grapevine seedlings; 20 days after planting
  Percentage of recovery of the treated seedlings: 94.8%
Grapevine seedlings; contact with the cuttings during the rehydration phase
  alteration of the wood: alters the wood
[1]; Merlot.N (182), with THW (50° C.-45 min)
  fungus found at least once among the individuals evaluated (PCR): B.obt
[1]; R110 (151), with THW (50° C.-45 min)
  fungus found at least once among the individuals evaluated (PCR): B.obt
[1]; SO4(203), with THW (50° C.-45 min)
  fungus found at least once among the individuals evaluated (PCR): B.obt
[1]; SO4(203), without THW
  fungus found at least once among the individuals evaluated (PCR): E.lata
[2]
  growth of the fungi (radius of mycelium): a certain efficacy
